13 molecules from US20230174507A1, “IMIDAZOLE 3-OXIDE DERIVATIVE BASED ACSS2 INHIBITORS AND METHODS OF USE THEREOF” (METABOMED LTD., priority 2020, published 2023) can be followed below.

A value given as a limit tells only on which side of the number the result lay.

One experiment deals with T1, human ACSS2 protein (Homo sapiens, UniProt Q9NR19).
T1 construct: purchased OriGene Technologies, Inc
The experiment is described as follows: ACSS2 cell-free activity assay (pyrophosphatase-coupled, Biomol green). The note with it: 10 nM human ACSS2, 90 minutes at 37 C, absorbance at 620 nm; read-out: ACSS2 Biochemical IC50. An outline of the steps:
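10 nM human ACSS2 incubated 90 min at 37 C with compound, 300 μM ATP, 10 μM CoA, 5 mM NaAc in pH 7.5 Hepes buffer with 0.5 U/ml pyrophosphatase. Released phosphate detected with Biomol Green at 620 nm; IC50 by non-linear regression constrained to 0% and 100%.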

Another experiment concerns the target T2, human ACSS1 protein (Homo sapiens, UniProt Q9NUB1).
T2 construct: purchased MyBioSource
T2 sequence (Q9NUB1 38-689): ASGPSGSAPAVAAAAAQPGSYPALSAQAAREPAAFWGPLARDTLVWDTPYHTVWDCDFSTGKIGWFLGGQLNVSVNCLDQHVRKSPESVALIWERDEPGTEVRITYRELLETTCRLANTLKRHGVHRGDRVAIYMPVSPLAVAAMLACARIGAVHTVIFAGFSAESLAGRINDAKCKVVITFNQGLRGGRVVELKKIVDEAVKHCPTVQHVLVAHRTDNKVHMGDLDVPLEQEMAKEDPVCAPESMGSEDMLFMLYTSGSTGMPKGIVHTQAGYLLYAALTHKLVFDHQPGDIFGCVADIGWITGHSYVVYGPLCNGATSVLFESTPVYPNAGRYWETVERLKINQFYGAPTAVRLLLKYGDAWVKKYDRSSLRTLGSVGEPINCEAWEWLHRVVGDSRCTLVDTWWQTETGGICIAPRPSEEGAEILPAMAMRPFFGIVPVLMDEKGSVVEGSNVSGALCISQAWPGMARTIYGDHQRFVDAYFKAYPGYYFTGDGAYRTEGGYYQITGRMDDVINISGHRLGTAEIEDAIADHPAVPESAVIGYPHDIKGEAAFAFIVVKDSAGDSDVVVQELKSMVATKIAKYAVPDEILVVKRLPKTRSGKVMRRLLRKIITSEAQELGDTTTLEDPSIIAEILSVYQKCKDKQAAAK
The experiment is described as follows: ACSS1 cell-free activity assay (pyrophosphatase-coupled, Biomol green). The format is biochemical. Particulars: 5 nM human ACSS1, 30 minutes at room temperature, absorbance at 620 nm; for IC50: read-out: ACSS1 Biochemical IC50; call rule not given here. An outline of the steps:
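5 nM human ACSS1 incubated 30 min at RT with compound in pH 7.5 Hepes buffer with 15 μM CoA, 5 mM acetate, 300 μM ATP, 2 mM MgCl2 and pyrophosphatase. Released phosphate detected with Biomol Green (30 min), absorbance 620 nm. IC50 from constrained non-linear regression.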

Experiment [1] addresses T3, ACSS2 in MDA-MB-468 cells (Homo sapiens, UniProt Q9NR19).
T3 construct: endogenous in cells; host or cells: MDA-MB-468 cells, hypoxia (1% O2)
The experiment is described as follows: Cellular fatty-acid IC50: 13C-acetate incorporation into fatty acids (palmitate), LC-MS. The format is cell-based. The note with it: hypoxic conditions (1% O2), 75% charcoal stripped serum, 5 hours, 13C-acetate into palmitate, read-out: Cellular Fatty-acid IC50 High Serum MDA468. How it is done: Cellular Fatty-Acid IC50 Determination:
The cellular activity of ACSS2 was measured in MDA-MB-468 cells under hypoxic conditions by tracing the incorporation of labelled carbons from ^13C-acetate into newly synthesized fatty acids. The assay was performed using 75% charcoal stripped serum (high serum conditions).
MDA-MB-468 cells were seeded in 12-well plates (0.35×10^6 cells per well) in plating medium (Dulbecco's Modified Eagle Medium containing 25 mM D-glucose, 1 mM sodium pyruvate, 10% v/v fetal bovine serum, and 2 mM glutamine) and incubated for 24 hours under hypoxic conditions (1% O2).
The next day, tracing medium containing DMEM (01-057-1A) containing 75% charcoal stripped serum (Biological industries 04-201-1A), 3.5 μg/mL Biotin (Sigma-Aldrich B4639), 1 mM Pyruvate, 5.5 mM Glucose, 0.65 mM Glutamine and 0.5 mM ^13C-Acetate (Sigma-Aldrich #282014) with serial dilutions of the compounds in the range of 0.000512-1000 nM were prepared. The plating medium was replaced with 1 mL tracing medium plus compounds and the cells were incubated for 5 hours under hypoxic conditions (1% O2). Plating medium in control wells (without cells or without compounds) was replaced with 1 mL tracing medium containing 0.01% v/v DMSO.
The level of ^13C-acetate incorporation into fatty acids (palmitate) was measured by LC-MS analysis and IC50 as described below:
Sample Preparation for LC-MS
• a) Cells were washed twice with cold phosphate buffered saline (PBS), scraped into 0.5 mL EDTA pH 8.0, and transferred into 1.1 mL V-shaped HPLC glass tubes. • b) The cell suspensions were centrifuged for 5 minutes at 400×g, 4° C. and the supernatants were removed. • c) Cell pellets were frozen at −80° C.
• d) Cell pellets were resuspended in 0.2 mL of 80% v/v ethanol in water containing 0.02 M NaOH in 1.1 ml glass (v-bottom) HPLC vials. • e) The vials were closed tight and incubated at 66° C. for 60 minutes. • f) Acetonitrile containing 2% v/v formic acid (150 μL) was added to each vial and the mixtures were transferred to Eppendorf tubes for centrifugation at 17 000×g for 20 minutes. • g) Supernatants were transferred to LC-MS vials.
The relative palmitate concentration was measured by LC-MS in reconstructed selected ion monitoring (RSIM) mode and negative ion mode. Samples were analyzed on a Phenomenex Kinetex 2.6 μm XB-C18 150×2.1 mm column at 45° C. (0.4 mL/minute flow rate) using: • a) A gradient from 15% A/85% C to 100% C for 0 to 2 minutes (A: water containing 5% v/v acetonitrile, 10 mM ammonium acetate, and 10 mM acetic acid; C: a mixture of 50% v/v acetonitrile and 50% v/v methanol). • b) Isocratic flow (100% C) for 2 to 5 minutes. • c) Equilibration in isocratic conditions (15% A/85% C) for 5 to 8 minutes.
Palmitate was eluted at approximately 3.4 minutes.
The percent inhibition was calculated relative to the sample without compound and after background deduction. IC50 values were calculated using non-linear regression curve fit analysis with 0% and 100% constraints (CDD Vault, Collaborative Drug Discovery, Inc. or GraphPad Prism).
The inhibitory activities of each compound against ACSS2 in MDA-MB-468 cells under high serum conditions, as determined by ^13C-acetate incorporation into fatty acids (palmitate), are presented in Table 2.

As usually defined, the IC50 is the concentration needed to halve the response being measured.

T1 sequence (Q9NR19 whole entry): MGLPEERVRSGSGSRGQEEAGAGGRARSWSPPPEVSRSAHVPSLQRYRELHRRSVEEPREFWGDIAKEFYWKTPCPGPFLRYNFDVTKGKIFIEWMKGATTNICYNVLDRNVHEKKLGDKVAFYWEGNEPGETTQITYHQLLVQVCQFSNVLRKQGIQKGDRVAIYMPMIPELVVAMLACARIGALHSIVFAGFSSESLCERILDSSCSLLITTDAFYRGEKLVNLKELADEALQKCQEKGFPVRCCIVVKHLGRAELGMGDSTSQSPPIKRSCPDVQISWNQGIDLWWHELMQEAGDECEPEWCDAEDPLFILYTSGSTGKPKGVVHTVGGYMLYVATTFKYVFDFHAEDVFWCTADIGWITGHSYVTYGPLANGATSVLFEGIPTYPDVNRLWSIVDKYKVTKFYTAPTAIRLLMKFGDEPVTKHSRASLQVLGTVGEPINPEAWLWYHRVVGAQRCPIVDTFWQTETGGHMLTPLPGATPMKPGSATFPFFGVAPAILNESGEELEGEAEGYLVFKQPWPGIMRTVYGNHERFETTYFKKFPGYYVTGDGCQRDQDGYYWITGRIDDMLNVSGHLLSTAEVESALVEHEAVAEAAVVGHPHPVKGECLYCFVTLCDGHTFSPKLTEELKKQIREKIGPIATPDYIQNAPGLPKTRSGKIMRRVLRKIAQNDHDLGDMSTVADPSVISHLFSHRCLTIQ
T3 sequence (Q9NR19 whole entry): as above

Take `CNC(=O)c1cccc(NC(=O)c2c(C)[nH]c(-c3ccc(OC)c(-c4c(C)cccc4C)c3)[n+]2[O-])c1` [Compound 146, 2-(6-methoxy-2′,6′-dimethyl-[1,1′-biphenyl]-3-yl)-5-methyl-4-((3-(methylcarbamoyl)phenyl)carbamoyl)-1H-imidazole 3-oxide]: the figures for the IC50 (on human ACSS2 protein; in experiment [1]) were < 1 nM and < 20 nM, respectively. The “ACSS1 Biochemical IC50 (nM)” value at human ACSS1 protein is given as “Inactive”.
Regarding `Cc1cncc(C)c1-c1cc(-c2[nH]c(C)c(C(=O)Nc3cccc(C(F)(F)C4CC4)c3)[n+]2[O-])ccc1OC(F)F` [Compound 115, 4-((3-(cyclopropyldifluoromethyl)phenyl)carbamoyl)-2-(4-(difluoromethoxy)-3-(3,5-dimethylpyridin-4-yl)phenyl)-5-methyl-1H-imidazole 3-oxide], the IC50 is < 1 nM on human ACSS2 protein and < 20 nM in experiment [1]. The “ACSS1 Biochemical IC50 (nM)” value at human ACSS1 protein is listed as “Inactive”.
The like results for `CNC(=O)c1cccc(NC(=O)c2c(C)[nH]c(-c3ccc(OC)c(-c4c(C)cccc4C)n3)[n+]2[O-])c1` [Compound 186, 2-(6-(2,6-dimethylphenyl)-5-methoxypyridin-2-yl)-5-methyl-4-((3-(methylcarbamoyl)phenyl)carbamoyl)-1H-imidazole 3-oxide] were, in that order, < 1 nM, < 20 nM and “Inactive”.
In the case of `COc1ccc(-c2[nH]c(C)c(C(=O)Nc3cccc(-c4ncon4)c3)[n+]2[O-])cc1-c1c(C)cccc1C` [Compound 190, 4-((3-(1,2,4-oxadiazol-3-yl)phenyl)carbamoyl)-2-(6-methoxy-2′,6′-dimethyl-[1,1′-biphenyl]-3-yl)-5-methyl-1H-imidazole 3-oxide], the IC50 at human ACSS2 protein was < 1 nM; in experiment [1] it was < 20 nM. The “ACSS1 Biochemical IC50 (nM)” value on human ACSS1 protein is given as “Inactive”.
For `COc1ccc(-c2[nH]c(C)c(C(=O)Nc3cccc(C(N)=O)c3)[n+]2[O-])cc1-c1c(C)cccc1C` [Compound 172, 4-((3-carbamoylphenyl)carbamoyl)-2-(6-methoxy-2′,6′-dimethyl-[1,1′-biphenyl]-3-yl)-5-methyl-1H-imidazole 3-oxide] the same measures were < 1 nM, < 20 nM and “Inactive”.
On to `COc1ccc(-c2[nH]c(C)c(C(=O)Nc3cccc(C(F)(F)F)c3)[n+]2[O-])cc1-c1c(C)cccc1C` [Compound 171, 2-(6-methoxy-2′,6′-dimethyl-[1,1′-biphenyl]-3-yl)-5-methyl-4-((3-(trifluoromethyl)phenyl)carbamoyl)-1H-imidazole 3-oxide], for which the figures for the IC50 (on human ACSS2 protein; in experiment [1]) were < 1 nM and < 20 nM, respectively. Moreover, the “ACSS1 Biochemical IC50 (nM)” value on human ACSS1 protein is listed as “Inactive”.
For `CNC(=O)c1cccc(NC(=O)c2c(C)[nH]c(-c3cccc(-c4c(C)cccc4C)c3)[n+]2[O-])c1` [Compound 176, 2-(2′,6′-dimethyl-[1,1′-biphenyl]-3-yl)-5-methyl-4-((3-(methylcarbamoyl)phenyl)carbamoyl)-1H-imidazole 3-oxide], the figures for the IC50 (on human ACSS2 protein; at human ACSS1 protein; in experiment [1]) were < 1 nM, > 30 nM and < 20 nM, respectively.
As to `COc1ccc(-c2[nH]c(C)c(C(=O)Nc3cccc(C(F)(F)C4CC4)c3)[n+]2[O-])cc1-c1c(C)cccc1C` [Compound 104, 4-((3-(cyclopropyldifluoromethyl)phenyl)carbamoyl)-2-(6-methoxy-2′,6′-dimethyl-[1,1′-biphenyl]-3-yl)-5-methyl-1H-imidazole 3-oxide], the results for the IC50 (on human ACSS2 protein; in experiment [1]) were < 1 nM and 20 to 50 nM, respectively. Also, the “ACSS1 Biochemical IC50 (nM)” value at human ACSS1 protein was “Inactive”.
Turning to `CCC(F)(F)c1cccc(NC(=O)c2c(C)[nH]c(-c3cc(-c4c(C)cccc4C)c(OC)cc3O)[n+]2[O-])c1` [Compound 123, 4-((3-(1,1-difluoropropyl)phenyl)carbamoyl)-2-(4-hydroxy-6-methoxy-2′,6′-dimethyl-[1,1′-biphenyl]-3-yl)-5-methyl-1H-imidazole 3-oxide], the IC50 was < 1 nM on human ACSS2 protein and < 20 nM in experiment [1]. Besides, the “ACSS1 Biochemical IC50 (nM)” value on human ACSS1 protein is given as “Inactive”.
Consider `CNC(=O)c1cccc(NC(=O)c2c(C)[nH]c(-c3cc(N)cc(-c4c(C)cccc4C)c3)[n+]2[O-])c1` [Compound 180, 2-(5-amino-2′,6′-dimethyl-[1,1′-biphenyl]-3-yl)-5-methyl-4-((3-(methylcarbamoyl)phenyl)carbamoyl)-1H-imidazole 3-oxide], for which the IC50 at human ACSS2 protein was < 1 nM; on human ACSS1 protein, > 30 nM; in experiment [1] it was < 20 nM.
For the molecule `Cc1cccc(C)c1-c1cc(-c2[nH]c(C)c(C(=O)Nc3cccc(C(F)(F)C4CC4)c3)[n+]2[O-])cc(C(C)O)c1` (stereo not drawn) [Compound 143, 4-((3-(cyclopropyldifluoromethyl)phenyl)carbamoyl)-2-(5-(1-hydroxyethyl)-2′,6′-dimethyl-[1,1′-biphenyl]-3-yl)-5-methyl-1H-imidazole 3-oxide], the values for the IC50 (at human ACSS2 protein; in experiment [1]) were < 1 nM and 20 to 50 nM, respectively. The “ACSS1 Biochemical IC50 (nM)” value on human ACSS1 protein is given as “Inactive”.
For `Cc1cccc(C)c1-c1cc(CN(C)C)cc(-c2[nH]c(C)c(C(=O)Nc3cccc(C(F)(F)C4CC4)c3)[n+]2[O-])c1` [Compound 175, 4-((3-(cyclopropyldifluoromethyl)phenyl)carbamoyl)-2-(5-((dimethylamino)methyl)-2′,6′-dimethyl-[1,1′-biphenyl]-3-yl)-5-methyl-1H-imidazole 3-oxide] the same measures were < 1 nM, < 20 nM and “Inactive”.
For `CCC(F)(F)c1cccc(NC(=O)c2c(C)[nH]c(-c3cccc(-c4ncncc4C)c3)[n+]2[O-])c1` [Compound 109, 4-((3-(1,1-difluoropropyl)phenyl)carbamoyl)-5-methyl-2-(3-(5-methylpyrimidin-4-yl)phenyl)-1H-imidazole 3-oxide] the same measures were < 1 nM, < 20 nM and “Inactive”.
